The subject of experiment [1] is green peach aphid (GPA) adults. In words: Green peach aphid progeny production on treated pepper leaf discs. Format: in vivo, Myzus persicae. The following applies: 1.0 μg/mL in acetone, 100 μL per leaf disc; 3 days. As to the method:
MBI-203 at 3% v/v concentration was tested to determine the effect of the compound on the progeny production of green peach aphid (GPA) adults. Bioassays were performed by iteming pepper leaf discs with MBI-203 at 3% v/v. Pepper leaf discs (from 3-4 week old pepper plants) were cut in circles using a 23 mm cookie cutter, selecting a flat portion of tbe leaf to make sure the disc can be evenly laid flat on the agar plate. A 1% agar solution was melted by heating and 30 μL, poured in each petri plate (16 mm×35 mm vented, polystyrene petri plates), just enough to cover the bottom of the plate to prop leaf discs and maintain humidity. The agar was allowed to solidify by cooling at room temperature. Leaf disc treatment was performed by pouring the treatment solution into a glass petri dish. With the solution in the dish, leaf discs were treated by soaking, gently swirling the dish to completely soak and coat the leaf discs. Treatment of leaf discs by soaking was done for 1 minute. […] Progeny (early nymphal instars) were counted 3 days after adult exposure to treated leaf discs. […]
Two concentrations of pare violacein compound in acetone, 0.5 μg/mL and 1.0 μg/mL were used in the test to determine the effect of the compound on the progeny production of green peach aphid (GPA) adults. […] Progeny (early nymphal instars) were counted 3 days after adult exposure to treated leaf discs. […]

The test system of experiment [2] is Green Peach Aphid adults (GPA). In words: Green peach aphid choice repellency bioassay of extracts, fractions and pure compound. Format: in vivo, Myzus persicae. Particulars: violacein purified from F9 and F10. The protocol: Choice bioassays on Green Peach Aphid adults (GPA) were done using MBI-203 fractions and pure compound. Fractions and pure compound (violacein) obtained from the extraction of cell paste of C. substugae (MBI-203) were tested for insect efficacy through repellency bioassays. Pepper leaf discs (from 3-4 week old pepper plants) were cut in circles using a 23 mm cookie cutter, selecting a flat portion of the leaf to make sure the leaf disc can be evenly laid flat into the agar plate after treatment of the compound. One percent (%) agar in water was prepared. The 1% agar solution was melted by heating and poured into the 145 mm×20 mm petri plate, enough to cover the bottom surface of the plate to prop leaf discs and maintain humidity. The agar was allowed to solidify by cooling at room temperature.
Leaf disc treatment was done by pipetting gently 100 μL of MBI-203 extract unto the underside of the leaf disc. Treated leaf discs were then allowed to dry off by laying the disc flat unto a labeled 12-well plate cover. […]
All tests were done in three replications. […] Data for repellency of adults and nymphs was determined 24 hours post exposure of adults on treated leaf discs. The number of aphids (adults and nymphs) was counted and data recorded and analyzed, The percent repellency was computed as: % Repellency=100-{([N+A]“on petri dish”)/[N+A]“on petri dish” X100}, […]

The results in this text go back to US20160128339A1, “CHROMOBACTERIUM FORMULATIONS, COMPOSITIONS, METABLOITES AND THEIR USES” (priority 2011, published 2016).

Take `O=C1NC(c2c[nH]c3ccc(O)cc23)=C/C1=C1\C(=O)Nc2ccccc21` [violacein]: in experiment [1], the “reduction of progeny production compared to the negative control” value is on record as “about 50%”. Besides, in experiment [2], the repellency turned out to be 300%.
